Legend:
Assay type in all cases: cell-based, human
PAX5 β gene expression = test: RT-PCR analysis for expression of the PAX5 β gene after DAC treatment
Protocol: (§1) Reverse transcription-PCR (RT-PCR) was conducted on cDNA from three breast cancer cell lines (MCF7, MDA-MB 231, and T47D) and one lung cancer cell line (Calu6) to determine the relationship between methylation of the PAX5 α and β genes and transcription. […] Reference is made to FIG. 3A, showing an MSP analysis of breast and lung cancer cell lines. Bisulfite-modified DNA was amplified with stage-2 primers specific for methylated alleles. […] Expression of the PAX5 α and β genes was restored in non-expressing cell lines following DAC treatment. Expression of the β-actin gene was determined as a control for RNA integrity.
(§2) 5-Aza-2′-deoxycytidine Treatment and RT-PCR. Re-expression studies were performed using three breast cancer cell lines (MCF7, MDA-MB-23 1, and T47D) and one lung cancer cell line (Calu6). […] The expression of the PAX5 α and β transcripts were determined by reverse transcription (RT)-PCR using the exon 1α forward primer (5′-[…]-3′) and the exon 1β forward primer (5′-[…]-3′) with an exon 2 reverse primer (5′-[…]-3′). β-actin was also amplified as a control for RNA integrity.
(§3) PCR amplification was performed at 94° C. for 10 min; then 35 cycles of 94° C. for 30 s, 64° C. for 30 s, and 72° C. for 30 s; and a 5-min final extension at 72° C. PCR products were analyzed on a 3% agarose gel containing ethidium bromide and visualized under UV illumination.

β-actin gene expression = test: RT-PCR analysis for expression of the housekeeping gene β-actin after DAC treatment; conditions: MCF7, MDA-MB 231, T47D, Calu6 cell lines, 1 μM DAC, 72 h
Protocol: as §1, §2, §3

PAX5 α gene expression = test: RT-PCR analysis for expression of the PAX5 α gene after DAC treatment; conditions: for PAX5 α transcript expression: 1 μM DAC, 72 h
Protocol: as §1
5-Aza-2′-deoxycytidine Treatment and RT-PCR. Re-expression studies were performed using three breast cancer cell lines (MCF7, MDA-MB-23 1, and T47D) and one lung cancer cell line (Calu6). Cell lines were treated for 3 days in culture media with 1 μM DAC (Sigma Chemical Co.). Total RNA was prepared using Trizol (Life Technologies, Inc.), and 3 μg aliquots were reverse-transcribed using the Superscript kit (Life Technologies, Inc.). The expression of the PAX5 α and β transcripts were determined by reverse transcription (RT)-PCR using the exon 1α forward primer (5′-[…]-3′) and the exon 1β forward primer (5′-[…]-3′) with an exon 2 reverse primer (5′-[…]-3′). β-actin was also amplified as a control for RNA integrity.
as §3

[1] = non-expressing breast and lung cancer cell lines, 1 μM DAC for 72 h (FIG. 3B)

Structure (SMILES): Nc1ncn([C@H]2C[C@H](O)[C@@H](CO)O2)c(=O)n1 [DAC, 5-Aza-2′-deoxycytidine]
- Expression of the PAX5 β gene (PAX5 β gene expression; [1]): restored
- PAX5 β transcript expression (PAX5 β gene expression; the other three cell lines (MCF7, MDA-MB 231, Calu6), 1 μM DAC, 72 h): restored expression
- expression of the housekeeping gene β-actin (β-actin gene expression): did not affect
- PAX5 α transcript expression (PAX5 α gene expression; Calu6 lung cancer cell line): increased expression
- PAX5 α transcript expression (PAX5 α gene expression; MDA-MB231 breast cancer cell line): restored expression
- PAX5 α transcript expression (PAX5 α gene expression; T47D breast cancer cell line): restored expression
- Expression of the PAX5 α gene (PAX5 α gene expression; [1]): restored

Source: US20040248171A1, “Cancer monitoring by aberrant promotor methylation of the transcription factor genes PAX5 alpha PAX5 beta, novel loop helix loop protein, novel gene 2, and beta 3 genes” (Lovelace Respiratory Research Institute, priority 2001, published 2004)
